Values quoted from earlier work in US20120157405A1, “Methods and Compositions for the Treatment of "Burning Feet Syndrome"” (priority 2010, published 2012).
Like-named read-outs stand apart in the source and are kept apart here.

What was measured:
diabetic neuropathy [1] = settings: double-blind trial
neuropathic pain = settings: double-blind study
[2] = tested on: symptomatic diabetic polyneuropathy; settings: symptomatic diabetic polyneuropathy and compressive radiculopathy syndrome from disc-nerve root conflict
[3] = tested on: symptomatic diabetic polyneuropathy
mild diabetic neuropathy = settings: 480 mg daily, after 12 months
[4] = tested on: Diabetes-Induced Oxidative Stress In Gastrointestinal Tissues; settings: exogenously administered, diabetic rats
[5] = tested on: jejunal transport of water, Na and Cl; settings: in vivo jejunal perfusion
diabetic neuropathy [6] = settings: animal studies
[7] = tested on: streptozotocin-induced diabetic rats; settings: 1.4 to 1.5 g/kg body weight, 7 weeks
[8] = tested on: sciatic pain caused by herniated disc
[9] = tested on: neuropathy associated with some chemotherapy drugs; settings: two studies
[10] = tested on: chemically induced diabetic rats
[11] = tested on: neuropathy associated with diabetes
[12] = tested on: cardiac autonomic neuropathy; settings: people with diabetes
diabetic neuropathy [13] = settings: over a one-year period
[14] = tested on: painful peripheral diabetic neuropathy; settings: 320 mg/day compared to 150 mg/day, over 6 weeks
[15] = tested on: severe diabetic peripheral neuropathy
skin irritation = settings: topical adjunct skin care
[16] = tested on: peripheral neuropathy symptoms; settings: niacin alone
“Burning Feet Syndrome” [17] = settings: 53 cases; parenteral calcium pantothenate given after the other vitamins
“Burning Feet Syndrome” [18] = settings: 6 mg intramuscular injections
[19] = tested on: complications among the major targets of diabetes; settings: in vivo
vitamin B12 deficiency = settings: oral supplementation only
[20] = tested on: nerve conduction and function; settings: 900 mg, six-month study
peripheral neuropathy = settings: daily high-dose supplementation for two years, person
[21] = after one year of treatment, all patients

## O=C(O)CCCCC1CCSS1 (stereo not drawn) [Alpha-lipoic acid]
Diabetic neuropathy [1]
  sensory symptoms and pain of diabetic neuropathy: rapidly and significantly reduces sensory symptoms and pain of diabetic neuropathy
Neuropathic pain
  nerve functionality and neuropathic pain: helped the recovery of nerve functionality and decrease neuropathic pain
[2]
  pain, paresthesia, and numbness: reduced the pain, paresthesia, and numbness
microcirculation; in vivo
  acute microcirculation occlusion: significantly improve
microcirculation; patients with diabetic polyneuropathy
  microcirculation: significant improvement in microcirculation
[3]; oral 600 milligrams and 1200 milligrams
  time at which TSS improvement was noted: 2 weeks
[3]; oral 600 to 1800 milligrams
  side effects: dose-dependent increase in the incidence of nausea
[3]; oral 1800 milligrams
  time at which TSS improvement was noted: the end of the first week
[3]; oral therapy, 600 to 1800 milligrams
  Total Symptom Score (TSS): significant improvement

## CCCCC/C=C\C/C=C\C/C=C\CCCCC(=O)O [GLA, gamma linolenic acid]
Mild diabetic neuropathy
  outcome versus placebo group: significantly better than the placebo group

## N=C(N)NCCC[C@H](N)C(=O)O [L-arginine]
[4]
  oxidative stress in the gastrointestinal tract: decrease the oxidative stress in the gastrointestinal tract
[5]
  jejunal transport of water, Na and Cl: dose-dependent pro-secretor effect

## CC(=O)N[C@@H](CS)C(=O)O [NAC, N-Acetylcysteine]
Diabetic neuropathy [6]
  neuropathy: can inhibit diabetic neuropathy and protect against neuropathies caused by chemotherapy drugs
[7]
  effect on diabetic neuropathy: protective effects

## O=C(O)CCCCC1CCSS1 (centres unmarked) [Thioctic acid]
[8]
  treatment of sciatic pain: appears to be effective

## CC(=O)O[C@H](CC(=O)[O-])C[N+](C)(C)C [acetyl-L-carnitine]
[9]
  chemotherapy-associated neuropathy: can limit the neuropathy
Diabetic animals; diabetic animals
  effects on glucose, insulin, or free fatty acids levels: without any adverse effects
  nerve conduction velocity: maintained near normal nerve conduction velocity
Diabetic animals; diabetic nerve degeneration and neuropathy, after experimental injury
  nerve regeneration: accelerated nerve regeneration
[10]
  nerve dysfunctions: A number of nerve dysfunctions were corrected
[11]; 52 weeks
  sural nerve fiber numbers and regenerating nerve fiber clusters: significant improvement
[11]; both studies
  vibratory perception: improved
[11]; daily doses of 500 mg and 1000 mg, 52 weeks
  pain: significant reductions in pain
[12]
  cardiac autonomic neuropathy: appeared to help prevent or slow cardiac autonomic neuropathy
Diabetic neuropathy [13]
  nerve conduction velocity and pain: improved nerve conduction velocity and reduced pain

## C/C(=C(\CCOP(=O)(O)O)SC(=O)c1ccccc1)N(C=O)Cc1cnc(C)nc1N [benfotiamine]
Alcoholic polyneuropathy; benfotiamine versus combination with vitamin B6 and B12
  alcoholic polyneuropathy: significant improvement
Alcoholic polyneuropathy; double-blind study
  adverse effects: no therapy-specific adverse effects
  pain and co-ordination: improvement was evident
[14]
  therapeutic effectiveness: most effective in large doses

## O=C(O)CCCC[C@@H]1SC[C@@H]2NC(=O)N[C@@H]21 [biotin]
[15]; [21]
  paresthesias: free of paresthesias
  walking distance without help: more than 300 meters
[15]; within four to eight weeks after biotin administration
  symptoms of peripheral neuropathy: objective improvement

## COc1cc(/C=C/C(=O)CC(=O)/C=C/c2ccc(O)c(OC)c2)ccc1O [curcumin]
DM arterioles; DM arterioles, hydroethidine probe, low or high doses
  intracellular superoxide anion (O2) production: significantly reduced
DM arterioles; high dose
  diabetes-induced vascular PKC-β11 expression: diminished
DM arterioles; low and high doses (30 and 300 mg/kg)
  Acetylcholine (ACh) responses: significantly improved

## CC(C)(CO)[C@@H](O)C(=O)NCCCO [dexpanthenol]
Skin irritation
  symptoms of skin irritation (dryness, roughness, scaling, pruritus, erythema, erosion/fissure): considerably improves symptoms of skin irritation

## O=C(O)c1cccnc1 [niacin]
[16]
  peripheral neuropathy symptoms: does not help peripheral neuropathy symptoms

## O=C(O)c1cccnc1 [nicotinic acid]
“Burning Feet Syndrome” [17]
  outcome of treatment of “Burning Feet Syndrome”: failed

## Cc1cc2nc3c(=O)[nH]c(=O)nc-3n(C[C@H](O)[C@H](O)[C@H](O)CO)c2cc1C [riboflavin]
“Burning Feet Syndrome” [17]
  outcome of treatment of “Burning Feet Syndrome”: failed
“Burning Feet Syndrome” [18]
  adverse reactions: no reported adverse reactions
  time until the burning pain subsided: ≤ 3 days

## NCCS(=O)(=O)O [taurine]
[19]
  severity of complications of diabetes (retina, neuron, kidney): diminishes the severity of complications

## Cc1ncc(C[n+]2csc(CCO)c2C)c(N)n1 [thiamine]
“Burning Feet Syndrome” [17]
  outcome of treatment of “Burning Feet Syndrome”: failed

## calcium pantothenate
“Burning Feet Syndrome” [17]
  outcome of treatment of “Burning Feet Syndrome”: cure

## vitamin B12
Vitamin B12 deficiency
  patients with low B12 levels whose deficiency was corrected: ~50%

## vitamin E
[20]
  nerve conduction: mild to moderate defective nerve conduction was improved
Peripheral neuropathy
  disease progression and neuropathy: slowed disease progression and produced significant improvement in their neuropathy
